molecular target: Plasmodium falciparum protein kinase 6 (PK6, PF3D7_1337100) (UniProt Q8IDW1); assay: PfPK6 kinase inhibitors, biochemical, TCAMS library (AID 1159586); settings: recombinant PfPK6, Kinase-Glo ATP depletion luminescence
Sequence (Q8IDW1 1-305): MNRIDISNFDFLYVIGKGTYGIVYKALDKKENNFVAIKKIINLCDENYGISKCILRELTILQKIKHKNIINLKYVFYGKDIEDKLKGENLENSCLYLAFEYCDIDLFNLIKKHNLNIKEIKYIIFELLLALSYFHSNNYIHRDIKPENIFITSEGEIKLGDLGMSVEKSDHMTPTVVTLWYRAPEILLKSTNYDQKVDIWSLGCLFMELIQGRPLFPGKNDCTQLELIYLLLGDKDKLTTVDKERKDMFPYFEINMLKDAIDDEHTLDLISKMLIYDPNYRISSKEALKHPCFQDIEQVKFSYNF

| IC50 [µM] | SMILES |
| --- | --- |
| 0.14 | NS(=O)(=O)c1ccc(Nc2nccc(-c3c(-c4cccc(NC(=O)c5c(F)cccc5F)c4)nn4ccccc34)n2)cc1 |
| 0.181 | C#CCNC(=O)c1ccc(-c2ccnc(Nc3cccc(CCCN4CCOCC4)c3)n2)s1 |
| 0.385 | CS(=O)(=O)Cc1ccc(Nc2nccc(N3CCCc4cc(NC(=O)Nc5cccc(C(F)(F)F)c5)ccc43)n2)cc1 |
| 0.464 | CN(c1ccc2c(c1)nc(NCc1ccccc1)n2C)c1ccnc(Nc2ccc(CS(C)(=O)=O)cc2)n1 |
| 0.265 | O=S1(=O)NCc2ccc(Nc3nccc(Nc4ccc5c(cnn5Cc5ccccc5)c4)n3)cc21 |
| 0.375 | CC(c1cccc(Nc2nccc(-c3c(-c4cccc(NC(=O)c5c(F)cccc5F)c4)nn4ncccc34)n2)c1)S(C)(=O)=O (centres undefined) |
| 0.695 | COc1c(CN2CCOCC2)cccc1-c1cc2c(-c3ccc(C(=O)O)c(C(C)C)c3)ccnc2[nH]1 |
| 0.229 | Cc1ccc(Nc2nc3cc(Nc4ccnc(Nc5cccc(CS(C)(=O)=O)c5)n4)ccc3o2)cc1 |
| 0.445 | COc1ccc(Nc2ncc3c(-c4cccc(NC(=O)Cc5ccc(O)cc5)c4)c[nH]c3n2)cc1OC |
| 0.145 | Cn1c(=O)c(-c2c(Cl)cccc2Cl)cc2cnc(Nc3ccc(N4CCOCC4)cc3)nc21 |
| 0.07 | CNC(=O)c1ccccc1Nc1nc(Nc2ccc(CCN3CCN(C)CC3)cc2)ncc1Cl |
| 0.144 | CC(=O)Nc1cccc(Nc2nccc(-c3c(-c4cccc(NC(=O)c5c(F)cccc5F)c4)nn4ncccc34)n2)c1 |
| 0.52 | CN(c1ccc(NC(=O)Nc2cc(C(F)(F)F)ccc2F)cc1)c1ccnc(NCCN2CCOCC2)n1 |
| 0.138 | CC(=O)c1ccc(NC(=O)Nc2ccc(N(C)c3ccnc(Nc4cccc(CS(C)(=O)=O)c4)n3)cc2)cc1 |
| 0.375 | CN(c1ccc(NC(=O)Nc2cc(C(C)(C)C)on2)cc1)c1ccnc(NCCN2CCOCC2)n1 |
| 0.201 | N#Cc1cnc(Nc2ccc(Oc3ccccc3)cc2)nc1Nc1cccc(S(N)(=O)=O)c1 |
| 0.844 | CN(c1ccc2c(c1)nc(NCc1ccc(F)cc1)n2C)c1ccnc(Nc2ccc(CS(C)(=O)=O)cc2)n1 |
| 0.167 | O=C(Cc1ccc(Nc2nccc(Nc3cccc4[nH]ncc34)n2)cc1)Nc1ccc(C(F)(F)F)cc1 |
| 0.08 | NC(=O)c1ccccc1Nc1nc(Nc2cccc(N3CCN(CCO)CC3)c2)ncc1Cl |
| 0.86 | Cn1nc(-c2ccc(NC(=O)Nc3ccc4ccccc4c3)c(F)c2)c2cnc(NCCN3CCOCC3)nc21 |
| 0.58 | O=C(Nc1cccc(-c2nn3ccccc3c2-c2ccnc(Nc3ccc(NCCCN4CCOCC4)c(F)c3)n2)c1)c1c(F)cccc1F |
| 0.105 | CS(=O)(=O)Cc1ccc(Nc2nccc(-c3c(-c4cccc(C(=O)Nc5c(F)cccc5F)c4)nn4ccccc34)n2)cc1 |
| 0.276 | CS(=O)(=O)Cc1ccc(Nc2nccc(-c3c(-c4cccc(NC(=O)c5c(F)cccc5F)c4)nn4ccccc34)n2)cc1 |
| 0.139 | CS(=O)(=O)Cc1ccc(Nc2nccc(-c3c(-c4cccc(NC(=O)C5CCCCC5)c4)nn4ncccc34)n2)cc1 |
| 0.302 | CCN(CC)CCCOc1ccc(Nc2nccc(-c3c(-c4cccc(NC(=O)c5c(F)cccc5F)c4)nn4ccccc34)n2)cc1F |
| 0.042 | CNC(=O)c1ccccc1Nc1nc(Nc2ccc(N3CCOCC3)cc2)ncc1Cl |
| 0.179 | CN1CCN(c2ccc(Nc3nccc(-c4cnn5ncccc45)n3)cc2Cl)CC1 |

Second part, the compound before the results:

| SMILES | IC50 [µM] |
| --- | --- |
| COc1ccc(Nc2ncc(C#N)c(Nc3ccccc3C(N)=O)n2)cc1N1CCN(C)CC1 | 0.061 |
| C(=N\Nc1nccc2sc(-c3ccccc3)cc12)/c1cccnc1 | 0.278 |
| COc1ccc(Nc2ncc(Cl)c(Nc3cccnc3C(N)=O)n2)cc1N1CCN(C)CC1 | 0.086 |
| COc1ccc(Nc2ncc(OC)c(Nc3ccccc3C(N)=O)n2)cc1N1CCN(C)CC1 | 0.27 |
| CS(=O)(=O)Cc1ccc(Nc2ncc(Cl)c(Nc3cccnc3C(N)=O)n2)cc1 | 0.691 |
| CCN(CC)CCOc1ccc(Nc2ncc3cc(-c4c(Cl)cccc4Cl)c(=O)n(C)c3n2)cc1 | 0.35 |
| CCN(CC)CCCNc1nccc(N(C)c2ccc(NC(=O)Nc3cc(C(F)(F)F)ccc3F)cc2)n1 | 0.705 |
| CS(=O)(=O)Cc1cccc(Nc2ncc(Cl)c(Nc3cccnc3C(N)=O)n2)c1 | 0.074 |
| CNC(=O)c1ccccc1Nc1nc(Nc2ccc(N3CCN(C)CC3)nc2)ncc1C | 0.143 |
| NCCNC(=O)c1ccc(-c2cnc3[nH]cc(-c4ccc(C(N)=O)cc4)c3c2)cc1 | 0.931 |
| CCNC(=O)Nc1ccc(N(C)c2ccnc(Nc3ccc(CS(C)(=O)=O)cc3)n2)cc1 | 0.269 |
| Cc1ccc(S(=O)(=O)Nc2ccc(Nc3nccc(Nc4cccc5[nH]ncc45)n3)cc2)cc1 | 0.823 |
| CN1CCN(c2ccc(Nc3ncc(C#N)c(Nc4ccccc4C(N)=O)n3)cc2)CC1 | 0.089 |
| CC(=O)Nc1ccc(Nc2ncc([N+](=O)[O-])c(Nc3ccccc3C(N)=O)n2)cc1 | 0.128 |
| CNC(=O)c1ccccc1Nc1nc(Nc2cccc(CS(C)(=O)=O)c2)ncc1C | 0.133 |
| Cc1ccc(Nc2ccnc(Nc3ccc4c(c3)CS(=O)(=O)C4)n2)cc1O | 0.122 |
| CN1CCC(NC(=O)c2cccc(Nc3cc(Nc4cccc(Br)c4)ncn3)c2)CC1 | 0.602 |
| CCN(CC)CCNc1nccc(N(C)c2ccc(NC(=O)Nc3cc(C(F)(F)F)ccc3F)cc2)n1 | 0.917 |
| O=c1[nH]ccc2nc(N[C@@H]3CCCNC3)nc(Nc3ccc(S(=O)(=O)N4CCOCC4)cc3)c12 | 0.115 |

| SMILES | IC50 [µM] |
| --- | --- |
| COc1cccc(-n2ncc3c(N/N=C/c4ccc(CN(C)CCN(C)C)cc4)ncnc32)c1 | 0.058 |
| Cn1cnc2c(Nc3ccncc3)nc(-c3ccc4c(c3)OCO4)nc21 | 0.5 |
| Nc1ncnc2occ(-c3ccc(NC(=O)Nc4cc(C(F)(F)F)ccc4F)cc3)c12 | 0.335 |
| N=C(N)c1ccc(Nc2nc(Nc3ccc(-c4ccccc4)cc3)ncc2[N+](=O)[O-])cc1 | 0.164 |
| Cc1cc(Nc2ncc(Cl)c(Nc3ccccc3C(N)=O)n2)n[nH]1 | 0.129 |
| CN(C)CC(O)COc1ccc(Nc2ncc([N+](=O)[O-])c(Nc3ccccc3O)n2)cc1 (centres undefined) | 0.067 |
| CCN(CC)CCNC(=O)c1ccc(Nc2ncc([N+](=O)[O-])c(Nc3ccccc3OC)n2)cc1 | 0.11 |
| CN(C)Cc1cccc(-c2cc3c(-c4cnn(C)c4)c(Cl)cnc3[nH]2)c1 | 0.128 |
| NS(=O)(=O)c1cccc(Nc2nccc(-c3cnn4ncccc34)n2)c1 | 0.246 |
| NCCNS(=O)(=O)c1ccc(-c2ccnc3[nH]c(-c4ccncc4)cc23)cc1 | 0.207 |
| CN(c1ccc(NC(=O)Nc2cccc(Cl)c2)cc1)c1ccnc(N)n1 | 0.402 |
| Cn1cc(-c2ccnc3[nH]c(-c4cccc(CNC5CCC(O)CC5)c4)cc23)cn1 (centres undefined) | 0.177 |
| Cc1cc(Nc2nc(Nc3cccc(Cl)c3)nc3ccccc23)n[nH]1 | 0.151 |
| CC(=O)Nc1nc(C)c(-c2csc(Nc3ccc(Cl)cc3)n2)s1 | 0.095 |
| Cc1cc(Nc2ncc(C#N)c(Nc3ccccc3C(N)=O)n2)ccc1N1CCN(C)CC1 | 0.054 |
| COc1c(CN2CCCC2)cccc1-c1cc2c(-c3ccc(C(=O)O)c(C(C)C)c3)ccnc2[nH]1 | 0.541 |
| N=C(N)c1ccc(Nc2nccc(Nc3nc(-c4ccccc4)cs3)n2)cc1 | 0.413 |
| Nc1ncc(-c2cccc(F)c2)cc1-c1nc2ccc(F)cc2[nH]1 | 0.206 |
